The supplement of paper PMC10307832

Compound: C1CN(CCC1C(C2=CC3=C(C=C2)OCO3)(C4=CC5=C(C=C4)OCO5)O)C(=O)OC6=CC=C(C=C6)[N+](=O)[O-] [JZL-184] + O=C(CCCCCCC(=O)Nc1ccccc1)NO [Vorinostat] (partner 1 µM)
Test: relative viability (nuclei count vs DMSO), 5 days (fraction); higher = more cells survive
Procedure, shortened: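 A single step with final 0.05% Triton X-100, 1% formaldehyde and 1 ug/ml Hoechst fixed the cells and stained nuclei 5 days after treatment. Lung cancer cell lines in 1536-well plates had been treated by pin tool the day after seeding with one drug alone or a fixed anchor-drug dose plus five library-drug doses (not always all listed) in √10 steps, and nuclei were counted on 4× images. Relative viability is the ratio of nuclei in treated wells to nuclei in vehicle wells, taken as the median of duplicate plates.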

| Cell Line | relative viability (first compound 0.04 µM) | relative viability (first compound 0.4 µM) | relative viability (first compound 1.265 µM) | relative viability (first compound 4 µM) |
| --- | --- | --- | --- | --- |
| 201T | 0.995 | 0.983 | 1.01 | 0.902 |
| A-427 | 0.871 | 0.829 | 0.83 | 0.754 |
| ABC-1 | 1.59 | 0.961 | 1.42 | 0.929 |
| BEN | 0.538 | 0.524 | 0.538 | 0.594 |
| CAL-12T | 0.86 | 0.805 | 0.88 | 0.717 |
| COR-L23 | 0.649 | 0.472 | 0.477 | 0.459 |
| COR-L 105 | 0.789 | 0.8 | 0.905 | 0.82 |
| ChaGo-K-1 | 0.79 | 0.726 | 0.751 | 0.679 |
| EKVX | 0.676 | 0.666 | 0.719 | 0.58 |
| EMC-BAC-2 | 0.522 | 0.451 | 0.761 | 0.371 |
| EPLC-272H | 0.509 | 0.536 | 0.402 | 0.53 |
| H3255 | 0.849 | 0.819 | 0.857 | 0.722 |
| HARA | 0.608 | 0.557 | 0.681 | 0.395 |
| HCC-15 | 0.918 | 0.796 | 0.919 | 0.773 |
| HCC-44 | 1.28 | 1.05 | 1.13 | 1.06 |
| HCC-78 | 0.405 | – | 0.492 | 0.378 |
| HCC-366 | 0.408 | 0.242 | 0.361 | 0.313 |
| HCC-827 | 0.942 | 0.244 | 0.577 | 0.839 |
| HOP-62 | 0.659 | 0.601 | 0.706 | 0.612 |
| IA-LM | 0.893 | 0.988 | 0.965 | 0.989 |
| LC-2-ad | 0.774 | 0.67 | 0.676 | 0.669 |
| LCLC-97TM1 | 1.03 | 0.644 | 0.619 | 0.749 |
| LCLC-103H | 0.72 | 0.752 | 0.768 | 0.734 |
| LK-2 | 0.275 | 0.309 | 0.251 | 0.295 |

| Cell Line | relative viability (first compound 0.04 µM) | relative viability (first compound 0.4 µM) | relative viability (first compound 1.265 µM) | relative viability (first compound 4 µM) |
| --- | --- | --- | --- | --- |
| LOU-NH91 | 1.02 | 0.893 | 1.03 | 0.893 |
| LU99A | 0.567 | 0.377 | 0.66 | 0.548 |
| LXF-289 | 0.771 | 0.734 | 0.755 | 0.669 |
| NCI-H23 | 0.62 | – | 0.673 | 0.502 |
| NCI-H322M | 0.882 | 0.784 | 0.867 | 0.684 |
| NCI-H358 | 0.776 | 0.768 | 0.677 | 0.69 |
| NCI-H441 | 0.793 | 1.02 | 0.784 | 0.697 |
| NCI-H460 | 0.675 | 0.597 | 0.779 | 0.624 |
| NCI-H520 | 0.884 | 0.683 | 0.798 | 0.678 |
| NCI-H522 | 0.937 | 0.858 | 0.952 | 0.947 |
| NCI-H596 | 0.701 | 0.63 | 0.501 | 0.556 |
| NCI-H647 | 0.898 | 0.635 | 0.892 | 0.4 |
| NCI-H650 | 0.518 | 0.369 | 0.422 | 0.414 |
| NCI-H661 | 0.865 | 0.714 | 0.975 | 0.772 |
| NCI-H727 | 1.26 | 1.14 | 1.08 | 1.05 |
| NCI-H838 | 0.791 | 0.72 | 0.738 | 0.636 |
| NCI-H1355 | 0.684 | 0.63 | 0.672 | 0.618 |
| NCI-H1395 | 0.651 | 0.621 | 0.811 | 0.683 |
| NCI-H1437 | 0.731 | 0.725 | 0.756 | 0.659 |
| NCI-H1650 | 0.715 | 0.541 | 0.604 | 0.561 |
| NCI-H1651 | 0.593 | 0.36 | 0.5 | 0.554 |
| NCI-H1666 | 1.07 | 1.02 | 1.01 | 1.01 |
| NCI-H1734 | 0.927 | 0.762 | 0.844 | 0.834 |
| NCI-H1755 | 0.704 | 0.634 | 0.798 | 0.638 |

| Cell Line | relative viability (first compound 0.04 µM) | relative viability (first compound 0.4 µM) | relative viability (first compound 1.265 µM) | relative viability (first compound 4 µM) |
| --- | --- | --- | --- | --- |
| NCI-H1793 | 0.663 | 0.571 | 0.963 | 0.64 |
| NCI-H1915 | 0.481 | 0.493 | 0.48 | 0.537 |
| NCI-H1944 | 0.528 | 0.476 | 0.565 | 0.475 |
| NCI-H1975 | 0.731 | 0.694 | 0.718 | 0.635 |
| NCI-H1993 | 0.907 | 0.736 | 1.21 | 0.764 |
| NCI-H2009 | 0.702 | 0.692 | 0.69 | 0.745 |
| NCI-H2023 | 0.766 | 0.587 | 0.588 | 0.44 |
| NCI-H2085 | – | 0.805 | 0.832 | 0.709 |
| NCI-H2087 | 0.969 | 0.742 | 0.807 | 1 |
| NCI-H2126 | 0.753 | 0.698 | 0.76 | 0.737 |
| NCI-H2170 | 0.922 | 0.754 | 0.811 | 0.737 |
| NCI-H2228 | 0.898 | 0.572 | 0.639 | 0.703 |
| NCI-H2342 | 0.809 | 0.676 | 0.719 | 0.813 |
| NCI-H2347 | – | 0.494 | 0.661 | 0.616 |
| NCI-H2405 | 1.15 | 0.83 | 1.3 | 0.968 |
| NCI-H3122 | 1.05 | 0.988 | 0.965 | 1.06 |
| PC-3 [JPC-3] | 0.873 | 0.761 | 1.14 | 0.736 |
| PC-14 | 0.848 | 0.722 | 0.758 | 0.661 |
| RERF-LC-KJ | 0.707 | 0.642 | 0.699 | 0.614 |
| SK-LU-1 | 0.795 | 0.744 | 0.894 | 0.717 |
| SK-MES-1 | 1.12 | 1.05 | 1.05 | 0.955 |
| SW 900 | 0.496 | 0.4 | 0.587 | 0.527 |
| SW 1573 | 0.824 | 0.64 | 0.788 | 0.551 |
| UMC-11 | 0.405 | 0.415 | 0.381 | 0.304 |
